Columns and labels:
[1] = tested on: MCF-7 cells (breast adenocarcinoma); assay: MTT cell viability assay, MCF-7; type: cell-based, human; conditions: Homo sapiens, MCF7, 48 h, MTT, read-out: cell viability, percentage of live cells; for viability at 10 µM: MCF-7, 10 µM; for viability at 50 µM: MCF-7, 50 µM
Experimental: (§1) Cell lines were purchased from the American Type Culture Collection (ATCC). MCF-7, HTB-54, BEAS-2B and 184B5 cell lines were grown in RPMI 1640 medium (Gibco) supplemented with 10% fetal bovine serum (FBS; Gibco), 100 units/mL penicillin, and […] streptomycin (Gibco). HT-29 and HCT-116 cell lines was cultured in McCoy’s 5A (Gibco), 10% FBS, 100 units/mL penicillin, and 100 μg/mL streptomycin. Cells were maintained at 37 °C and 5% CO2. Culture medium was replaced every three days.
(§2) A cell viability assay of each compound was carried out using an MTT assay. Each selenourea was dissolved in dimethyl sulfoxide (DMSO) at a concentration of 0.01 M. Serial dilutions were prepared with non-supplemented culture medium. Cytotoxic activity of each selenourea was determined at two different concentrations (10 and 50 µM) in MCF-7, HTB-54, and HT-29 cells. In addition, selected compounds were tested at seven different concentrations (0.1, 1, 5, 10, 25, 50, 100 µM) on MCF-7, HT-29, HCT-116, HTB-54, 184B5, and BEAS-2B cells. The number of passages before defrosting the cells was 3, and they were kept under culture up to a maximum of 15.
(§3) Briefly, 1 × 10^4 cells/well were grown in 96-well plates for 24 h. Then, these cells were incubated with either DMSO (negative control) at 5 µM or a different concentration of each tested selenourea for 48 h. A volume of 20 µL of MTT was added 150 min before the termination point to measure cellular viability. After this time, culture medium was removed. The resultant formazan crystals were dissolved in 50 µL of DMSO, and absorbance was measured at 570 nm. Results are expressed as IC50, the half maximal inhibitory concentration. This value was calculated using GraphPad Prism 7 software by nonlinear curve fitting. Furthermore, the selectivity index (SI) was calculated as the ratio of the IC50 values determined for the non-malignant and the tumoral cells (IC50 (184B5)/IC50 (MCF-7) or (IC50 (BEAS-2B)/IC50 (HTB-54). Data were obtained from at least three independent experiments performed in triplicates.
(§4) The cytotoxic effects of synthesized compounds were evaluated against three human cancer cell lines: breast adenocarcinoma (MCF-7), lung adenocarcinoma (HTB-54), and colon carcinoma (HT-29), using a 3-[4,5-dimethylthiazol-2-yl]-2,5-diphenyltetrazolium bromide (MTT) assay. Firstly, the compounds were screened at two doses (50 and 10 µM) and after 48 h of treatment. The results are summarized in Figure 4 and are presented as percentages of growth inhibition related to control.

[2] = tested on: HTB-54 cells (lung adenocarcinoma); assay: MTT cell viability assay, HTB-54; type: cell-based, human; conditions: Homo sapiens, 48 h, MTT, read-out: cell viability, percentage of live cells; for viability at 10 µM: HTB-54, 10 µM; for viability at 50 µM: HTB-54, 50 µM
Experimental: as §1, §2, §3, §4

[3] = tested on: HT-29 cells (colon carcinoma); assay: MTT cell viability assay, HT-29; type: cell-based; conditions: Homo sapiens, 48 h, MTT, read-out: cell viability, percentage of live cells; for viability at 10 µM: HT-29, 10 µM; for viability at 50 µM: HT-29, 50 µM
Experimental: as §1, §2, §3, §4

[4] = DPPH radical scavenging assay; conditions: for DPPH radical scavenging capacity compared with ascorbic acid: at lower concentrations; for DPPH radical scavenging kinetics: 0.03 mg/mL, time-point 0 min
Experimental: (§5) From all the methods available for the prediction of the antioxidant properties, DPPH^● and ABTS^●+ assays were chosen according to their simplicity, accessibility, and effectiveness for a fast prediction of radical scavenging activities in vitro. The radical scavenging capacity of the novel selenoureas was determined by DPPH^● and ABTS^●^+ assays. Measurements were recorded on a BioTeck PowerWave XS spectrophotometer (BioTeck Instruments, Winooski (VT), USA) and the data were collected using KCJunior software (BioTeck Instruments, Winooski (VT), USA).
A DPPH assay was performed, as described by Svinyarov. Stock solutions of 1 mg/mL were initially prepared for each selenourea in methanol and this solution was used for the preparation of the different concentrations employed in the assay. Ascorbic acid (Asc) was used as positive control due to the literature reports that this derivative is a potent antioxidant and radical scavenger. A volume of 100 µL from a previously prepared stock solution (preserved in dark and daily prepared) of DPPH (100 µM) in methanol were added to 100 µL of the methanolic selenoureas solutions prepared previously, and the antioxidant activity these compounds was assessed by its ability to decolorize DPPH● radical (purple color in methanol) to DPPHH (colorless). Thus, radical scavenging activity was estimated by the decrease in the absorbance at 517 nm. Determinations were recorded at different time-points. All the measurements were carried out in triplicate. Results are expressed as the percentage of the radicals scavenged, calculated using the following formula:(1) % DPPH radical scavenging=Acontrol − Asample/Acontrol × 100 where Acontrol refers to the absorbance of the negative control and Asample refers to the absorbance of the tested compounds. Results are expressed as percentage of DPPH radical scavenging ± SD.
In order to determine the radical scavenging of these newly synthesized selenourea derivatives, the DPPH assay was firstly employed. Measurements were performed at four different concentrations ranging from 0.0003 to 0.03 mg/mL, and collected at time-points between 0 min and 120 min (Figures S81–S100). Results are presented as the percentage of inhibition for DPPH radical scavenging activity.

[5] = ABTS radical scavenging assay; conditions: for ABTS radical scavenging kinetics: 0.03 mg/mL
Experimental: as §5
As well as DPPH, ABTS radical scavenging assay is a colorimetric method. ABTS (2,2′-azino-bis(3-ethylbenzothiazoline-6-sulfonic acid) was dissolved in deionized water at 1 mg/mL and oxidized to ABTS^●+ with potassium persulfate (2.45 mM final concentration). This oxidation process is not instantaneous, and the reaction mixture was kept in the dark overnight at room temperature. After ABTS^●+ radical was generated, the ABTS^●+ solution was diluted with 50% ethanol until an absorbance of 0.70 ± 0.02 at 734 nm for measurements was achieved. Stock solution of 1 mg/mL in absolute ethanol was prepared for each selenourea, and different dilutions were prepared to reach the final concentration, when 20 µL of this solution were added to 180 µL of the diluted ABTS^●+. The absorbance at 734 nm was recorded using 50% ethanol as blank. Trolox and Asc were used as positive controls. All determinations were carried out in triplicate. Same time intervals as in the DPPH assay were also measured. The ability to scavenge ABTS^●+ was calculated using the following formula:(2) % ABTS radical scavenging=Acontrol − Asample/Acontrol × 100 where Acontrol refers to the absorbance of the negative control and Asample refers to the absorbance of the tested compounds. The results are expressed as percentage of ABTS radical scavenging ± SD.
In order to confirm the antioxidant activity of the selenoureas, we performed an additional ABTS (2,2′-azino-bis(3-ethylbenzothiazoline-6-sulfonic acid) radical scavenging assay. Following the results obtained in the DPPH assay, this experiment was performed at 0.03 and 0.003 mg/mL. Measurements were recorded after 0′, 6′ and 60′ of incubation with ABTS. For comparison purposes, Trolox and ascorbic acid were used as references. The remarkable results are summarized in Figure 3.

| Compound | viability at 10 µM [1] [%] | viability at 50 µM [1] [%] | viability at 10 µM [2] [%] | viability at 50 µM [2] [%] | viability at 10 µM [3] [%] | viability at 50 µM [3] [%] | melting point [°C] | DPPH radical scavenging capacity compared with ascorbic acid [4] | ABTS radical scavenging activity ([5]; 0.003 mg/mL, 60 min) | DPPH radical scavenging kinetics [4] | ABTS radical scavenging activity compared with Trolox ([5]; 0.003 mg/mL, 60 min) | ABTS radical scavenging kinetics [5] |
| --- | --- | --- | --- | --- | --- | --- | --- | --- | --- | --- | --- | --- |
| [Se]=C(NCc1ccco1)Nc1ccccc1 [Compound 1a] | 75.7 | 32.3 | 63.5 | 20.5 | 70.4 | 44.6 | 109 |  |  |  |  |  |
| Cc1ccc(NC(=[Se])NCc2ccco2)cc1 [Compound 1b] | 64.8 | 12.4 | 52.1 | 21.6 | 66.2 | 43.1 |  |  |  |  |  |  |
| COc1ccc(NC(=[Se])NCc2ccco2)cc1 [Compound 1c] | 64 | 21.5 | 55.7 | 28.8 | 70.5 | 39.1 | 128 |  |  |  |  |  |
| Cc1ccc(NC(=[Se])NCc2nccs2)cc1 [Compound 2b] | 65.5 | 16.8 | 53.1 | 18.1 | 88.3 | 49.6 | 154 | greater radical scavenging capacity than ascorbic acid |  |  |  |  |
| COc1ccc(NC(=[Se])NCc2nccs2)cc1 [Compound 2c] | 60 | 33.1 | 58.5 | 30.3 | 88.9 | 53.1 | 150 | greater radical scavenging capacity than ascorbic acid | above 90% |  |  |  |
| N#Cc1ccc(NC(=[Se])NCc2nccs2)cc1 [Compound 2e] | 62.3 | 43.6 | 66.6 | 40.1 | 57.9 | 59.2 | 152 |  | above 90% | reaching the maximum activity at time-point 0′ |  |  |
| Cc1ccc(NC(=[Se])Nc2ccc3oc(=O)ccc3c2)cc1 [Compound 3b] | 73.8 | 29.2 | 62.9 | 27.3 | 57.1 | 46.1 | 145 |  |  | reaching the maximum activity at time-point 0′ |  |  |
| COc1ccc(NC(=[Se])Nc2ccc3oc(=O)ccc3c2)cc1 [Compound 3c] | 73.9 | 17.4 | 61.6 | 9.7 | 58.2 | 34.3 | 159 |  |  | reaching the maximum activity at time-point 0′ |  |  |
| O=c1ccc2cc(NC(=[Se])Nc3ccc(Cl)cc3)ccc2o1 [Compound 3d] | 69.7 | 28.6 | 70.1 | 14 | 59.1 | 35.7 | 156 |  |  | reaching the maximum activity at time-point 0′ |  |  |
| CCCCNC(=[Se])Nc1ccc(Cl)cc1 [Compound 4d] | 50.3 | 34.1 | 58.1 | 38 | 64.4 | 46 | 116 |  |  |  |  |  |
| CCCCNC(=[Se])Nc1ccc(C#N)cc1 [Compound 4e] | 70.7 | 39 | 74.6 | 29.7 | 60.7 | 46.3 | 145 |  |  | reaching the maximum activity at time-point 0′ |  |  |
| CCCCCCNC(=[Se])Nc1ccc(OC)cc1 [Compound 5c] | 60.1 | 8.1 | 70.4 | 10.7 | 62.6 | 31.1 | 97 |  |  |  |  |  |
| CCCCCCNC(=[Se])Nc1ccc(Cl)cc1 [Compound 5d] | 81.3 | 17.3 | 81.4 | 57.2 | 69.1 | 42.5 | 110 |  |  |  | significant lower radical scavenging activity than Trolox |  |
| CCCCCCNC(=[Se])Nc1ccc(C#N)cc1 [Compound 5e, N-hexyl-N´-(4-cyanophenyl)selenourea] | 68.5 | 14.7 | 80.2 | 23.3 | 59.1 | 40.4 | 125 |  |  | reaching the maximum activity at time-point 0′ |  |  |
| Cc1c(C)c2c(c(C)c1O)CCC(C)(C(=O)O)O2 (centres unmarked) [Trolox, reference compound] |  |  |  |  |  |  |  |  |  |  |  | reached the maximal ABTS radical scavenging activity quickly |
| O=C1O[C@H]([C@@H](O)CO)C(O)=C1O [ascorbic acid, reference compound] |  |  |  |  |  |  |  |  |  |  |  | reached the maximal ABTS radical scavenging activity quickly |

Reference: paper PMC8156206, “Novel N,N′-Disubstituted Selenoureas as Potential Antioxidant and Cytotoxic Agents” (Antioxidants, 2021)
